According to paper PMC8204385 (Biophysical Journal, 2021):
Several values for one entry are separate records, joined by “and”; a condition that tells them apart may be missing. Equal values may be shown once.

Target: T1, human SHP-1 (Homo sapiens, UniProt P29350)
T1 construct: 6xHis (N); made in house; host or cells: Escherichia coli BL21-CodonPlus (DE3)-RIPL
Experiment: SPR-based assay for tethered SHP-1 reactions on immobilised phosphopeptides, extended MPDPDE model fit
Type: binding

[1] = SPR, 37°C, MPDPDE fit, mean ± SE of N experiments

T1 sequence (P29350 whole entry): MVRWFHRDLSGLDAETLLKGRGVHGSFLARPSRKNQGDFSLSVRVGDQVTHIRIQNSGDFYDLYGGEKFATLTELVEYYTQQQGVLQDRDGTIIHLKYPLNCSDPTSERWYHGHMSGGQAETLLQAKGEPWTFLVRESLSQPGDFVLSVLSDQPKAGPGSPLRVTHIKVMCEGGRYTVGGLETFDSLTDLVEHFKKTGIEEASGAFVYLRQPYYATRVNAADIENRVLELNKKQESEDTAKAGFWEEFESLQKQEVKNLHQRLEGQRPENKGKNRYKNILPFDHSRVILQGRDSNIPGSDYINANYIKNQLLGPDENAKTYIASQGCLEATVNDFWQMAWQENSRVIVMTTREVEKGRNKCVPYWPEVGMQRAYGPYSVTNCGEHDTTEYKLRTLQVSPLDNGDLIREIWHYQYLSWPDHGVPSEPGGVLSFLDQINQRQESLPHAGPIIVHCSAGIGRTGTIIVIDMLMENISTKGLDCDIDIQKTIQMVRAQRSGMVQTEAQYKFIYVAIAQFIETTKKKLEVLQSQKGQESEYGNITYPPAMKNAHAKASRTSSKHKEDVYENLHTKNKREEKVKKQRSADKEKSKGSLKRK

Substance: biotin-QLRRRGKTNHYQTTVEKK SLTIYAQVQKPGPLQKKLD SFPA QDPCTTIYVAATEPVPESVQET NSITVY^∗ASVTLPES [SLAM, N-terminally biotinylated singly phosphorylated peptide of the cytoplasmic tail of SLAM, 77 aa]
- molecular reach contributed by the peptide tail (LPD-1 or LSLAM) (37°C, ((L^2 − LSHP-1^2)/2)^1/2 with LSHP-1 = 13.0 nm): 20.1 nm and 20 nm
- kon (SPR Biacore T200, 37°C, 10 μL/min, SHP-1 injected 45 s over biotinylated phosphopeptide on streptavidin CM5 chip, HEPES pH 7.4, MPDPDE fit, mean ± SE of N experiments): 20000 ± 10000 M⁻¹ s⁻¹
- allosteric activation of SHP-1, ratio kcat(tethered)/kcat(solution) (SPR, 37°C): 6.2 fold
- Kd (SPR, 37°C, KD = koff/kon, mean ± SE of N experiments): 130 ± 40 µM
- L, molecular reach of the reaction (SPR, 37°C, L = (σ*)^−1/3 from averaged σ*, ± SE): 31.2 ± 1.2 nm
- kcat(solution) [1]: 5800 ± 1000 M⁻¹ s⁻¹
- kcat(tethered) [1]: 36000 ± 3000 M⁻¹ s⁻¹
- koff [1]: 1.7 ± 0.2 s⁻¹
- σ* (local concentration) [1]: 55 ± 6 µM
